Source: ChEMBL document CHEMBL2169819, “Synthesis and biological evaluation of 2-amino-3-(4-chlorobenzoyl)-4-[(4-arylpiperazin-1-yl)methyl]-5-substituted-thiophenes. effect of the 5-modification on allosteric enhancer activity at the A1 adenosine receptor” (J Med Chem, 2012)
Calls of active or inactive are those of the source. The calls are words filed in the database; no cut-off is given here.

Tests used:
[1] = target: Adenosine receptor A2a (Homo sapiens) (UniProt P29274); assay: Displacement of [3H]ZM241385 from human adenosine A2A receptor expressed in CHO cells at 10 uM after 120 mins by scintillation counting; type: cell-based
[2] = target: T1, Adenosine receptor A1 (Homo sapiens) (UniProt P30542); assay: Displacement of [3H]DPCPX from human adenosine A1 receptor expressed in CHO cells at 10 uM after 120 mins by scintillation counting; type: cell-based
T1 sequence (whole entry): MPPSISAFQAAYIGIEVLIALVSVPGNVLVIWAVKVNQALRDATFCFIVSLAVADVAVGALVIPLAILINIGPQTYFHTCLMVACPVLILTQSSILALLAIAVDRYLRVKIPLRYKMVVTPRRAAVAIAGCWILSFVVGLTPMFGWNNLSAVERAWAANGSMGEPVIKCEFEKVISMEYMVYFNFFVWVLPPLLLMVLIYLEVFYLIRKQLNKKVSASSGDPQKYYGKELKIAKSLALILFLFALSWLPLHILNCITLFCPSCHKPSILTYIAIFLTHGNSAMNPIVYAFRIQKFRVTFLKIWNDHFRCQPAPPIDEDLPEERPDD

[3] = target: T1, Adenosine receptor A1 (Homo sapiens); assay: Allosteric enhancing activity at human adenosine A1 receptor expressed in CHO cells assessed as inhibition of forskolin-stimulated cAMP accumulation at 100 nM incubated for 10 mins prior to forskolin-stimulation measured after 5 mins by competition protein binding assay in presence of 2-chloro-N6-cyclopentyladenosine; type: functional, cell-based
[4] = target: T1, Adenosine receptor A1 (Homo sapiens); assay: Allosteric enhancing activity at human adenosine A1 receptor expressed in CHO cells assessed as inhibition of forskolin-stimulated cAMP accumulation at 10 uM incubated for 10 mins prior to forskolin-stimulation measured after 5 mins by competition protein binding assay; type: functional, cell-based
[5] = target: T1, Adenosine receptor A1 (Homo sapiens); assay: Allosteric enhancing activity at human adenosine A1 receptor expressed in CHO cells assessed as increase in [3H]-2-chloro-N6-cyclopentyladenosine Bmax at 10 uM after 90 mins relative to control; type: cell-based
[6] = target: T1, Adenosine receptor A1 (Homo sapiens); assay: Allosteric enhancing activity at human adenosine A1 receptor expressed in CHO cells assessed as increase in CCPA-induced [3H]DPCPX displacement at 10 uM after 90 mins relative to control; type: cell-based
[7] = target: T2, Adenosine receptor A3 (Homo sapiens) (UniProt P0DMS8); assay: Displacement of [3H]MRE-3008-F20 from human adenosine A3 receptor expressed in CHO cells at 10 uM after 120 mins by scintillation counting; type: cell-based
T2 sequence (whole entry): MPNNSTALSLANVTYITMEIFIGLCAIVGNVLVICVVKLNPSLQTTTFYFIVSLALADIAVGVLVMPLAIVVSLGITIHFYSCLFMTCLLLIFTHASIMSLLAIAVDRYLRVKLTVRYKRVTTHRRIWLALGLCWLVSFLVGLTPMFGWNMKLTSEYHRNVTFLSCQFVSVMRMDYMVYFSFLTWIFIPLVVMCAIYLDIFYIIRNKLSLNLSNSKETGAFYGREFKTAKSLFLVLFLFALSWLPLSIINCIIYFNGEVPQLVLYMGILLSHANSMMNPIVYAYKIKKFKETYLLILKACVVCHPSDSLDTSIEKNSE

Sequence of Adenosine receptor A2a (Homo sapiens) (P29274 whole entry): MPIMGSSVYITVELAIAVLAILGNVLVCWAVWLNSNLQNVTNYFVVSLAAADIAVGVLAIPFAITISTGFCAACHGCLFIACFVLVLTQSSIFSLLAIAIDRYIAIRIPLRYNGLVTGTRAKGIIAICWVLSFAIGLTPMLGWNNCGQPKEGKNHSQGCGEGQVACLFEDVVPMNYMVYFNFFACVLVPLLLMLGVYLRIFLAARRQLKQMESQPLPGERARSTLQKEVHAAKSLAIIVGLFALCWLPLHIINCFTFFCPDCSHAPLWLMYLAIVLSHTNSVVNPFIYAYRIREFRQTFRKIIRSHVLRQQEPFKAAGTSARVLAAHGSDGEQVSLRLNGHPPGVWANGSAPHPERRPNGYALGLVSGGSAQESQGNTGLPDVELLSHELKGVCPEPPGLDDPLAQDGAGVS

Row | Structure (SMILES) | inhibition [1] | inhibition [2] | inhibition [3] [%] | inhibition [4] [%] | fold change (FC) [5] | Ratio Ki [6] | inhibition [7] [%]
1 | Cc1sc(N)c(C(=O)c2ccc(Cl)cc2)c1CN1CCN(c2ccc(Cl)c(C(F)(F)F)c2)CC1 | < 12% | < 12% | 48 | 52 | 5.1 | 4.6 | < 12
2 | Cc1sc(N)c(C(=O)c2ccc(Cl)cc2)c1CN1CCN(c2cccc(Cl)c2)CC1 | < 12% | < 12% | 54 | 58 | 6.5 | 6.1 | < 12
3 | Cc1sc(N)c(C(=O)c2ccc(Cl)cc2)c1CN1CCN(Cc2ccccc2)CC1 | < 12% | < 12% | 19 | 14 | 1.8 | 1.4 | < 12
4 | Nc1sc(-c2ccc(Cl)cc2)c(CN2CCN(c3ccc(Cl)c(Cl)c3)CC2)c1C(=O)c1ccc(Cl)cc1 | < 12% | < 12% | 67 | 69 | 8.3 | 7.7 | < 12
5 | Nc1sc(-c2ccc(Cl)cc2)c(CN2CCN(c3ccc(Cl)cc3)CC2)c1C(=O)c1ccc(Cl)cc1 | < 12% | < 12% | 71 | 85 | 11.4 | 8.7 | < 12
6 | Cc1sc(N)c(C(=O)c2ccc(Cl)cc2)c1CN1CCN(c2ccc(Cl)c(Cl)c2)CC1 | < 12% | < 12% | 51 | 56 | 5.9 | 5.4 | < 12
7 | Nc1scc(CN2CCN(c3ccc(OC(F)(F)F)cc3)CC2)c1C(=O)c1ccc(Cl)cc1 | – | – | – | – | 6.8 | 5.3 | –
8 | Cc1sc(N)c(C(=O)c2ccc(Cl)cc2)c1CN1CCN(c2ccc(Br)cc2)CC1 | < 12% | < 12% | 46 | 49 | 4.9 | 4.5 | < 12
9 | Cc1sc(N)c(C(=O)c2ccc(Cl)cc2)c1CN1CCN(c2ccc(C#N)cc2)CC1 | < 12% | < 12% | 15 | 11 | 1.4 | 1.2 | < 12
10 | Nc1scc(CN2CCN(c3ccc(Cl)cc3)CC2)c1C(=O)c1ccc(Cl)cc1 | – | – | – | – | 7 | 5.6 | –
11 | Cc1sc(N)c(C(=O)c2ccc(Cl)cc2)c1CN1CCN(c2ccc(F)cc2)CC1 | < 12% | < 12% | 53 | 50 | 5.9 | 5.2 | < 12
12 | COc1ccc(N2CCN(Cc3c(C)sc(N)c3C(=O)c3ccc(Cl)cc3)CC2)cc1 | < 12% | < 12% | 30 | 31 | 3.2 | 2.6 | < 12
13 | CCc1sc(N)c(C(=O)c2ccc(Cl)cc2)c1CN1CCN(c2ccc(Cl)cc2)CC1 | < 12% | < 12% | 53 | 60 | 6.5 | 6 | < 12
14 | Cc1ccc(N2CCN(Cc3c(C)sc(N)c3C(=O)c3ccc(Cl)cc3)CC2)cc1 | < 12% | < 12% | 58 | 61 | 6.6 | 5.9 | < 12
15 | Cc1sc(N)c(C(=O)c2ccc(Cl)cc2)c1CN1CCN(c2ccc([N+](=O)[O-])cc2)CC1 | < 12% | < 12% | 13 | 9 | 1.3 | 1.1 | < 12
16 | Cc1sc(N)c(C(=O)c2cccc(C(F)(F)F)c2)c1C | inactive | inactive | 22 | – | 1.3 | 1.6 | –
17 | Nc1scc(CN2CCN(c3ccc(C(F)(F)F)cc3)CC2)c1C(=O)c1ccc(Cl)cc1 | – | – | – | – | 7.7 | 6.3 | –

Next, values leading:

Row | inhibition [1] | inhibition [2] | inhibition [3] [%] | inhibition [4] [%] | fold change (FC) [5] | Ratio Ki [6] | inhibition [7] [%] | Structure (SMILES)
18 | < 12% | < 12% | 77 | 82 | 11.7 | 9.5 | < 12 | Nc1sc(-c2ccc(F)cc2)c(CN2CCN(c3ccc(F)cc3)CC2)c1C(=O)c1ccc(Cl)cc1
19 | < 12% | < 12% | 72 | 78 | 10.7 | 8.9 | < 12 | Nc1sc(-c2ccc(Cl)cc2)c(CN2CCN(c3ccc(OC(F)(F)F)cc3)CC2)c1C(=O)c1ccc(Cl)cc1
20 | < 12% | < 12% | 61 | 60 | 7.6 | 6.8 | < 12 | Cc1sc(N)c(C(=O)c2ccc(Cl)cc2)c1CN1CCN(c2ccc(C(F)(F)F)cc2)CC1
21 | < 12% | < 12% | 66 | 62 | 8.2 | 7.6 | < 12 | Nc1sc(-c2ccccc2)c(CN2CCN(c3ccccc3C(F)(F)F)CC2)c1C(=O)c1ccc(Cl)cc1
22 | < 12% | < 12% | 60 | 63 | 7.5 | 7.1 | < 12 | Nc1sc(-c2ccccc2)c(CN2CCN(c3cccc(C(F)(F)F)c3)CC2)c1C(=O)c1ccc(Cl)cc1
23 | < 12% | < 12% | 67 | 68 | 9.7 | 7.9 | < 12 | Nc1sc(-c2ccccc2)c(CN2CCN(c3ccc(Cl)cc3)CC2)c1C(=O)c1ccc(Cl)cc1
24 | < 12% | < 12% | 52 | 51 | 6.2 | 5.7 | < 12 | Cc1sc(N)c(C(=O)c2ccc(Cl)cc2)c1CN1CCN(c2cccc(C(F)(F)F)c2)CC1
25 | < 12% | < 12% | 69 | 67 | 9.4 | 8.4 | < 12 | Nc1sc(-c2ccccc2)c(CN2CCN(c3ccc(OC(F)(F)F)cc3)CC2)c1C(=O)c1ccc(Cl)cc1
26 | < 12% | < 12% | 50 | 57 | 5.5 | 4.9 | < 12 | CCc1sc(N)c(C(=O)c2ccc(Cl)cc2)c1CN1CCN(c2ccccc2)CC1
27 | < 12% | < 12% | 63 | 65 | 7.7 | 6.8 | < 12 | Nc1sc(-c2ccc(Cl)cc2)c(CN2CCN(Cc3ccccc3)CC2)c1C(=O)c1ccc(Cl)cc1
28 | < 12% | < 12% | 73 | 72 | 10.7 | 8.9 | < 12 | Nc1sc(-c2ccccc2)c(CN2CCN(c3ccc(C(F)(F)F)cc3)CC2)c1C(=O)c1ccc(Cl)cc1
29 | < 12% | < 12% | 70 | 76 | 10.1 | 8 | < 12 | Nc1sc(-c2ccc(Cl)cc2)c(CN2CCN(c3ccc(Cl)c(C(F)(F)F)c3)CC2)c1C(=O)c1ccc(Cl)cc1
30 | < 12% | < 12% | 62 | 66 | 8.1 | 7.2 | < 12 | Nc1sc(-c2ccc(Cl)cc2)c(CN2CCN(c3ccccc3C(F)(F)F)CC2)c1C(=O)c1ccc(Cl)cc1
31 | < 12% | < 12% | 75 | 83 | 11.2 | 10.5 | < 12 | Nc1sc(-c2ccc(Cl)cc2)c(CN2CCN(c3ccc(C(F)(F)F)cc3)CC2)c1C(=O)c1ccc(Cl)cc1
